Values joined by “and” are separate entries in the source; they are usually repeats but may differ in a detail not shown here. Equal entries are not always repeated.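 Cultured in 96-well plates, cells were exposed to test compound for 48 hours across five concentrations. The concentration for 50% growth inhibition is given as GI50. Definition used: TGI = concentration required for complete inhibition of growth.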
Assays:
Experiment in all cases: growth of human tumour cells (NCI), 48 h
A498 renal = system: A498 renal
SF-268 CNS = system: SF-268 CNS
HL-60(TB) leukemia = system: HL-60(TB) leukemia
CAKI-1 renal = system: CAKI-1 renal
HCT-116 colon = system: HCT-116 colon
RXF 393 renal = system: RXF 393 renal
UO-31 renal = system: UO-31 renal
A549 NSCLC = system: A549 NSCLC
KM12 colon = system: KM12 colon
OVCAR-3 ovarian = system: OVCAR-3 ovarian
EKVX NSCLC = system: EKVX NSCLC
SNB-75 CNS = system: SNB-75 CNS
DLD-1 colon = system: DLD-1 colon
HOP-62 NSCLC = system: HOP-62 NSCLC
DMS 114 small cell lung = system: DMS 114 small cell lung
HOP-92 NSCLC = system: HOP-92 NSCLC
MALME-3M melanoma = system: MALME-3M melanoma
ACHN renal = system: ACHN renal
SK-OV-3 ovarian = system: SK-OV-3 ovarian
DMS 273 small cell lung = system: DMS 273 small cell lung
TK-10 renal = system: TK-10 renal
UACC-257 melanoma = system: UACC-257 melanoma
RPMI-8226 leukemia = system: RPMI-8226 leukemia
XF 498 CNS = system: XF 498 CNS
KM20L2 colon = system: KM20L2 colon
SK-MEL-28 melanoma = system: SK-MEL-28 melanoma
OVCAR-4 ovarian = system: OVCAR-4 ovarian
NCI-H23 lung = system: NCI-H23 lung
SN12C renal = system: SN12C renal
NCI-H460 lung = system: NCI-H460 lung
M14 melanoma = system: M14 melanoma
SK-MEL-5 melanoma = system: SK-MEL-5 melanoma
SW-620 colon = system: SW-620 colon
SF-295 CNS = system: SF-295 CNS
IGROV1 ovarian = system: IGROV1 ovarian
HS 578T breast = system: HS 578T breast
MOLT-4 leukemia = system: MOLT-4 leukemia
OVCAR-8 ovarian = system: OVCAR-8 ovarian
SNB-78 CNS = system: SNB-78 CNS
HOP-18 NSCLC = system: HOP-18 NSCLC
SK-MEL-2 melanoma = system: SK-MEL-2 melanoma
NCI-H522 lung = system: NCI-H522 lung
M19-MEL melanoma = system: M19-MEL melanoma
SF-539 CNS = system: SF-539 CNS
786-0 renal = system: 786-0 renal
SR leukemia = system: SR leukemia
OVCAR-5 ovarian = system: OVCAR-5 ovarian
HCT-15 colon = system: HCT-15 colon
COLO 205 colon = system: COLO 205 colon
LXFL 529 NSCLC = system: LXFL 529 NSCLC
NCI-H226 lung = system: NCI-H226 lung
SNB-19 CNS = system: SNB-19 CNS
U251 CNS = system: U251 CNS
HCC-2998 colon = system: HCC-2998 colon
HT29 colon = system: HT29 colon
K-562 leukemia = system: K-562 leukemia
LOX IMVI melanoma = system: LOX IMVI melanoma
MCF7 breast = system: MCF7 breast
MDA-MB-435 = system: MDA-MB-435
T-47D breast = system: T-47D breast
UACC-62 melanoma = system: UACC-62 melanoma
BT-549 breast = system: BT-549 breast
DU-145 prostate = system: DU-145 prostate
MDA-N = system: MDA-N
NCI/ADR-RES ovarian = system: NCI/ADR-RES ovarian
PC-3 prostate = system: PC-3 prostate
RXF-631 renal = system: RXF-631 renal
MDA-MB-231 breast = system: MDA-MB-231 breast

CCN(CC)CCCNc1ccc2ncn3c4ccc(O)cc4c(=O)c1c23
GI50 (A498 renal): 0.6 µM
TGI (A498 renal): 17.8 µM
GI50 (SF-268 CNS): 2.66 µM
TGI (SF-268 CNS): 17.5 µM
GI50 (HL-60(TB) leukemia): 0.17 µM
TGI (HL-60(TB) leukemia): 4.49 µM and 1.62 µM
GI50 (CAKI-1 renal): 0.205 µM
TGI (CAKI-1 renal): 2.48 µM and 2.36 µM
GI50 (HCT-116 colon): 0.359 µM
TGI (HCT-116 colon): 9.75 µM and 14.1 µM
GI50 (RXF 393 renal): 0.902 µM
TGI (RXF 393 renal): 6.35 µM and 2.69 µM
GI50 (UO-31 renal): 0.295 µM
TGI (UO-31 renal): 13.4 µM
GI50 (A549 NSCLC): 0.336 µM
TGI (A549 NSCLC): 6.94 µM
GI50 (KM12 colon): 2.6 µM
TGI (KM12 colon): 19.5 µM
TGI (OVCAR-3 ovarian): 22.2 µM
GI50 (EKVX NSCLC): 5.51 µM
TGI (EKVX NSCLC): 19 µM
GI50 (SNB-75 CNS): 2.3 µM
TGI (SNB-75 CNS): 8.49 µM and 8.39 µM
TGI (DLD-1 colon): 16.1 µM
GI50 (HOP-62 NSCLC): 1.25 µM
TGI (HOP-62 NSCLC): 19.2 µM
TGI (DMS 114 small cell lung): 23.8 µM
GI50 (HOP-92 NSCLC): 1.28 µM
TGI (HOP-92 NSCLC): 7.57 µM and 12.5 µM
GI50 (MALME-3M melanoma): 4.17 µM
TGI (MALME-3M melanoma): 19.1 µM
GI50 (ACHN renal): 0.389 µM
TGI (ACHN renal): 3.78 µM
GI50 (SK-OV-3 ovarian): 0.369 µM
TGI (SK-OV-3 ovarian): 17.8 µM
TGI (DMS 273 small cell lung): 14.8 µM
GI50 (TK-10 renal): 2.23 µM
TGI (TK-10 renal): 21.2 µM
TGI (UACC-257 melanoma): 23.8 µM
GI50 (RPMI-8226 leukemia): 1.45 µM
TGI (RPMI-8226 leukemia): 21.8 µM
TGI (XF 498 CNS): 14.2 µM
TGI (KM20L2 colon): 18.2 µM
TGI (SK-MEL-28 melanoma): 25.2 µM
TGI (OVCAR-4 ovarian): 11.9 µM
GI50 (NCI-H23 lung): 0.784 µM
TGI (NCI-H23 lung): 14.5 µM
GI50 (SN12C renal): 2.78 µM
TGI (SN12C renal): 14.7 µM
GI50 (NCI-H460 lung): 0.0627 µM
TGI (NCI-H460 lung): 5.78 µM
TGI (M14 melanoma): 16 µM
TGI (SK-MEL-5 melanoma): 18.3 µM
GI50 (SW-620 colon): 0.832 µM
TGI (SW-620 colon): 15.8 µM
GI50 (SF-295 CNS): 1.83 µM
TGI (SF-295 CNS): 15.9 µM
GI50 (IGROV1 ovarian): 0.265 µM
TGI (IGROV1 ovarian): 8.58 µM and 18.6 µM
TGI (HS 578T breast): 7.28 µM
TGI (MOLT-4 leukemia): 0.255 µM and 0.52 µM
GI50 (OVCAR-8 ovarian): 0.669 µM
TGI (OVCAR-8 ovarian): 13.4 µM
TGI (SNB-78 CNS): 28.8 µM
TGI (HOP-18 NSCLC): 34.6 µM
TGI (SK-MEL-2 melanoma): 19 µM
GI50 (NCI-H522 lung): 0.218 µM
TGI (NCI-H522 lung): 4.44 µM and 4.68 µM
TGI (M19-MEL melanoma): 21.3 µM
GI50 (SF-539 CNS): 4.51 µM
TGI (SF-539 CNS): 17.2 µM
GI50 (786-0 renal): 0.802 µM
TGI (786-0 renal): 14.5 µM
GI50 (SR leukemia): 0.124 µM
TGI (SR leukemia): 2.86 µM and 1.53 µM
GI50 (OVCAR-5 ovarian): 4.39 µM
TGI (OVCAR-5 ovarian): 10.7 µM
GI50 (HCT-15 colon): 2.03 µM
TGI (HCT-15 colon): 15.7 µM
TGI (COLO 205 colon): 19.4 µM
TGI (LXFL 529 NSCLC): 18.5 µM
TGI (NCI-H226 lung): 3.5 µM
GI50 (SNB-19 CNS): 0.493 µM
TGI (SNB-19 CNS): 20.2 µM
GI50 (U251 CNS): 2.05 µM
TGI (U251 CNS): 17.7 µM
GI50 (HCC-2998 colon): 3.59 µM
TGI (HCC-2998 colon): 17.8 µM
GI50 (HT29 colon): 2.32 µM
TGI (HT29 colon): 7.78 µM
GI50 (K-562 leukemia): 1.3 µM
TGI (K-562 leukemia): 20.5 µM
GI50 (LOX IMVI melanoma): 0.95 µM
TGI (LOX IMVI melanoma): 2.37 µM and 2.56 µM

CCN(CCCl)CCCCNc1c2ccccc2nc2ccc(OC)cc12
TGI (MCF7 breast): 0.935 µM
TGI (A498 renal): 0.875 µM
TGI (SF-268 CNS): 1.36 µM
TGI (MDA-MB-435): 2.12 µM
TGI (CAKI-1 renal): 1.89 µM
TGI (HCT-116 colon): 1.29 µM
TGI (RXF 393 renal): 1.7 µM
TGI (UO-31 renal): 4.51 µM
TGI (A549 NSCLC): 2.27 µM
TGI (KM12 colon): 1.82 µM
TGI (OVCAR-3 ovarian): 3.78 µM
TGI (EKVX NSCLC): 3.15 µM
TGI (SNB-75 CNS): 2.14 µM
TGI (HOP-62 NSCLC): 3.71 µM
TGI (T-47D breast): 1.5 µM
TGI (DMS 114 small cell lung): 1.83 µM
TGI (HOP-92 NSCLC): 0.886 µM
TGI (MALME-3M melanoma): 2.89 µM
TGI (ACHN renal): 1.72 µM
TGI (SK-OV-3 ovarian): 2.77 µM
TGI (DMS 273 small cell lung): 1.44 µM
TGI (TK-10 renal): 5.22 µM
TGI (UACC-257 melanoma): 10.5 µM
TGI (RPMI-8226 leukemia): 4.08 µM
TGI (UACC-62 melanoma): 1.59 µM
TGI (BT-549 breast): 7.41 µM
TGI (KM20L2 colon): 3.35 µM
TGI (SK-MEL-28 melanoma): 8.36 µM
TGI (DU-145 prostate): 1.74 µM
TGI (OVCAR-4 ovarian): 2.79 µM
TGI (NCI-H23 lung): 1.96 µM
TGI (SN12C renal): 1.61 µM
TGI (NCI-H460 lung): 1.39 µM
TGI (M14 melanoma): 2.92 µM
TGI (SK-MEL-5 melanoma): 1.98 µM
TGI (SW-620 colon): 1.63 µM
TGI (SF-295 CNS): 3.64 µM
TGI (IGROV1 ovarian): 2.05 µM
TGI (HS 578T breast): > 100 µM
TGI (MDA-N): 2.96 µM
TGI (OVCAR-8 ovarian): 1.94 µM
TGI (SNB-78 CNS): 4.07 µM
TGI (SK-MEL-2 melanoma): 2.48 µM
TGI (NCI-H522 lung): 1.43 µM
TGI (M19-MEL melanoma): 1.68 µM
TGI (SF-539 CNS): 4.69 µM
TGI (NCI/ADR-RES ovarian): > 100 µM
TGI (786-0 renal): 1.56 µM
TGI (SR leukemia): 1.55 µM
TGI (OVCAR-5 ovarian): 2.96 µM
TGI (HCT-15 colon): 5.43 µM
TGI (COLO 205 colon): 3.63 µM
TGI (LXFL 529 NSCLC): 1.76 µM
TGI (PC-3 prostate): 1.14 µM
TGI (NCI-H226 lung): 1.08 µM
TGI (SNB-19 CNS): 3.34 µM
TGI (U251 CNS): 1.72 µM
TGI (RXF-631 renal): 4.51 µM
TGI (HT29 colon): 3.31 µM
TGI (MDA-MB-231 breast): 3.99 µM
TGI (LOX IMVI melanoma): 1.52 µM

From PubChem BioAssay (NCI)
